The text below walks through data of ChEMBL document CHEMBL5375972, “Discovery of Novel 2,3-Dihydro-1H-indene-5-sulfonamide NLRP3 Inflammasome Inhibitors Targeting Colon as a Potential Therapy for Colitis” (J Med Chem, 2023).

The nature of data set [1]: Subacute toxicity in C57BL/6 mouse assessed as spleen histological changes at 10 mg/kg,ip administrated for 14 days. Type of data set: organism-based. The following applies: in vivo, 336 h, time 14 day.
The test system of data set [2] is Mus musculus. The experiment in a line: Anti-inflammatory activity in DSS-induced ulcerative colitis C57BL/6 mouse model assessed as decrease in caspase-1 expression in colon at 10 mg/kg,ip administrated for 9 days by immunohistochemistry analysis. The following applies: time 9.0 day. Type of data set: functional, organism-based.
Data set [3] can be described thus: Subacute toxicity in C57BL/6 mouse assessed as colon histological changes at 100 mg/kg,ip administrated for 14 days. In kind it is organism-based. The following applies: in vivo, 336 h, time 14 day.
The test system of data set [4] is Mus musculus. The experiment in a line: Anti-inflammatory activity in C57BL/6 mouse assessed as inhibition of LPS-induced TNFF-alpha secretion at 10 mg/kg,ip administrated for 1 hr followed by LPS stimulation for 2.5 hrs by ELISA analysis. In kind it is functional, organism-based. For orientation: An ELISA detects its analyte on a solid surface through an enzyme-linked reagent.

Data set [5] is described as follows: Subacute toxicity in C57BL/6 mouse assessed as liver histological changes at 100 mg/kg,ip administrated for 14 days. In kind it is organism-based. The following applies: in vivo, 336 h, time 14 day.
Data set [6] in a line: Cytotoxicity against mouse J774.A1 cells incubated for 24 hrs by resazurin reagent based assay. In kind it is toxicity, cell-based.

Structures are written as SMILES. The source made the active and inactive calls. No cut-off for these calls is given here. Where only a bound is given, the exact number is not on record here.

Take `CCCNS(=O)(=O)c1ccc2c(c1)CC(N(Cc1cc(Cl)ccc1OCCOC)C(=O)c1cc3ccccc3o1)C2` (racemic): the Activity entry in data set [1], in data set [3] and in data set [5] was “Non-Toxic” each time. Moreover, the result in the data set on Mus musculus [2] and in the data set with Mus musculus [4] was Active. Moreover, the CC50 at 24 h in data set [6] was > 30 µM.

Broadly, the CC50 is the concentration giving 50% cytotoxicity.
